The target of experiment [1] is T1, human Adenosine A3 receptor (Homo sapiens, UniProt P0DMS8).
T1 sequence (P0DMS8 1-318): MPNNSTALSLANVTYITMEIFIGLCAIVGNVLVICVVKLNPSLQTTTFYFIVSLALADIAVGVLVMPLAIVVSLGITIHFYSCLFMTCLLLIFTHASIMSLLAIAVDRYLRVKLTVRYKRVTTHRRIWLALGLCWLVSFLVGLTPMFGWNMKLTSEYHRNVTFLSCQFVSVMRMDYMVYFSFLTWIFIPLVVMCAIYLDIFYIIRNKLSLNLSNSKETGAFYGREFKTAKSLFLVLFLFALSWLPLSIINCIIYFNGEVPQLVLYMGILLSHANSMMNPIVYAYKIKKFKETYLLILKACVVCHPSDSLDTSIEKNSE
In words: Adenosine receptor TR-FRET binding assay (CA200645 displacement), A3.

Experiment [2] concerns the target T2, human Adenosine A2a receptor (Homo sapiens, UniProt P29274).
T2 construct: expressed in transfected cells; host or cells: CHO cell membranes
In words: Adenosine receptor TR-FRET binding assay (CA200645 displacement), A2a. Conditions: 100 nM CA200645, CHO cell membranes, 2 hours at room temperature.

Experiment [3] deals with T3, human Adenosine A1 receptor (Homo sapiens, UniProt P30542).
T3 sequence (P30542 1-326): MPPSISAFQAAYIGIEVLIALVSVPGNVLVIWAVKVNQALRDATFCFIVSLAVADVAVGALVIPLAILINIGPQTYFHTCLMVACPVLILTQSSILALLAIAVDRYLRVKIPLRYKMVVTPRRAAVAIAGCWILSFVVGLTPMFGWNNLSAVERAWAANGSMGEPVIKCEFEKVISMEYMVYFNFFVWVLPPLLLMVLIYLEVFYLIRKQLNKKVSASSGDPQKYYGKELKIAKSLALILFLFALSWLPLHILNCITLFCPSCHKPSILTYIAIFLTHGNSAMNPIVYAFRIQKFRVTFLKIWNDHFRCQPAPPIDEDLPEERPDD
Kind of experiment: Adenosine receptor TR-FRET binding assay (CA200645 displacement), A1.

Experiment [4] deals with T4, human Adenosine A2b receptor (Homo sapiens, UniProt P29275).
T4 construct: expressed in transfected cells; host or cells: CHO cell membranes
T4 sequence (P29275 1-332): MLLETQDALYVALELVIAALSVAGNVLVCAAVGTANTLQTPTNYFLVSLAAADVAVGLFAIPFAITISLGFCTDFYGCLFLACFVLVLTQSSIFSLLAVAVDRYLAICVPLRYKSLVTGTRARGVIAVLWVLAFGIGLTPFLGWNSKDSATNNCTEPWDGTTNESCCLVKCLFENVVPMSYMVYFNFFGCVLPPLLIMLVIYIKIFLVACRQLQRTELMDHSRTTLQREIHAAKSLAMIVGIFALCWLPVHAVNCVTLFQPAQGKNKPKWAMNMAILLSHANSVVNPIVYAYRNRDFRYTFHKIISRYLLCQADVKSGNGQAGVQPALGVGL
In words: Adenosine receptor TR-FRET binding assay (CA200645 displacement), A2b. The following applies: 30 nM CA200645, CHO cell membranes, 2 hours at room temperature. A general note: In TR-FRET formats the signal depends on donor and acceptor labels being close together.

Counter-ions that a name gives are not always drawn. Bounds are passed on as bounds.

As usually defined, the Ki is the equilibrium dissociation constant of an inhibitor or competing ligand from its target.

T2 sequence (P29274 whole entry): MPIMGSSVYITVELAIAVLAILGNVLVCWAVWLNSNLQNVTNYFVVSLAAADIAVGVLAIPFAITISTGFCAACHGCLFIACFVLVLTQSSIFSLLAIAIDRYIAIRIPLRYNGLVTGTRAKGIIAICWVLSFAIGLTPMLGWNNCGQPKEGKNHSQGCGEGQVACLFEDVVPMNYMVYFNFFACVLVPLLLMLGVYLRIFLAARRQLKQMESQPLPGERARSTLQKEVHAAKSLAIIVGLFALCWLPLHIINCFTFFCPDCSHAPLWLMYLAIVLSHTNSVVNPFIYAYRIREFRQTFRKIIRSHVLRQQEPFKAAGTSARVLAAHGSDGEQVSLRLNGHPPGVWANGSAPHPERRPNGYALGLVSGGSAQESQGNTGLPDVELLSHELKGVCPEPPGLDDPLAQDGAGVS

Turning to `CC(=O)Nc1cc(-c2c(-c3cccc(C#N)c3)nn3ccc(N)nc23)cc(C)n1` [Example 27.4, N-[4-[5-Amino-2-(3-cyanophenyl)pyrazolo[1,5-a]pyrimidin-3-yl]-6-methyl-2-pyridyl]acetamide], the Ki in experiment [1] is greater than 1000 nM; in experiment [2], 54.1 nM; in experiment [3], 583 nM; in experiment [4], 519 nM.

As for `Cc1cc(-c2c(-c3cccc(C#N)c3)nn3ccc(N)nc23)cc2ncnn12` [Example 27.5, 3-[5-Amino-3-(5-methyl-[1,2,4]triazolo[1,5-a]pyridin-7-yl)pyrazolo[1,5-a]pyrimidin-2-yl]benzonitrile], the Ki in experiment [1] is greater than 1000 nM; in experiment [2] it was 360 nM; in experiment [3], 46 nM; in experiment [4], 108 nM.

For the compound `Cc1cc(-c2c(-c3cccc(C#N)c3)nn3ccc(N)nc23)cc(C(=O)O)n1` [Example 28, 4-[5-Amino-2-(3-cyanophenyl)pyrazolo[1,5-a]pyrimidin-3-yl]-6-methyl-pyridine-2-carboxylic acid], the Ki in experiment [1] is greater than 1000 nM; in experiment [2] it was 359 nM; in experiment [3], 1120 nM; in experiment [4], 2460 nM.

As for `Cc1cc(-c2c(-c3cccc(C#N)c3)nn3ccc(N)nc23)cc(N(C)C)n1` [Example 29, 3-[5-Amino-3-[2-(dimethylamino)-6-methyl-4-pyridyl]pyrazolo[1,5-a]pyrimidin-2-yl]benzonitrile], the Ki in experiment [1] was greater than 1000 nM; in experiment [2], 15.2 nM; in experiment [3] it was 144 nM; in experiment [4], 56 nM.

For `Cc1cc(-c2c(-c3cccc(C#N)c3)nn3ccc(NC(=O)NCC(C)(C)O)nc23)cc(Cl)n1` [Example 30.1, 1-[3-(2-Chloro-6-methyl-4-pyridyl)-2-(3-cyanophenyl)pyrazolo[1,5-a]pyrimidin-5-yl]-3-(2-hydroxy-2-methyl-propyl)urea], the Ki in experiment [1] was greater than 1000 nM; in experiment [2], 1.3 nM; in experiment [3] it was 26 nM; in experiment [4] it was 5 nM.

Regarding `CCN1CCC(NC(=O)Nc2ccn3nc(-c4cccc(C#N)c4)c(-c4cc(C)nc(Cl)c4)c3n2)CC1` [Example 30.2, 1-[3-(2-Chloro-6-methyl-4-pyridyl)-2-(3-cyanophenyl)pyrazolo[1,5-a]pyrimidin-5-yl]-3-(1-ethyl-4-piperidyl)urea], the Ki in experiment [1] was greater than 1000 nM; in experiment [2] it was 31.5 nM; in experiment [3] it was 130 nM; in experiment [4], 49 nM.

As to `Cc1cc(-c2c(-c3cccc(C#N)c3)nn3ccc(NC(=O)N4CC5(COC5)C4)nc23)cc(C)n1` [Example 30.4, N-[2-(3-Cyanophenyl)-3-(2,6-dimethyl-4-pyridyl)pyrazolo[1,5-a]pyrimidin-5-yl]-2-oxa-6-azaspiro[3.3]heptane-6-carboxamide], the Ki in experiment [1] was greater than 1000 nM; in experiment [2] it was 7.8 nM; in experiment [3], 103 nM; in experiment [4], 73 nM.

Take `Cc1cc(-c2c(-c3cccc(C#N)c3)nn3ccc(NC(=O)N4CCC(C)(C#N)CC4)nc23)cc(C)n1` [Example 30.5, 4-Cyano-N-[2-(3-cyanophenyl)-3-(2,6-dimethyl-4-pyridyl)pyrazolo[1,5-a]pyrimidin-5-yl]-4-methyl-piperidine-1-carboxamide]: the Ki in experiment [1] is greater than 1000 nM; in experiment [2] it was 8.4 nM; in experiment [3], 262 nM; in experiment [4], 28 nM.

With `Cc1cc(-c2c(-c3cccc(C#N)c3)nn3ccc(NC(=O)N4CCNCC4)nc23)cc(Cl)n1` [Example 31, N-[3-(2-Chloro-6-methyl-4-pyridyl)-2-(3-cyanophenyl)pyrazolo[1,5-a]pyrimidin-5-yl]piperazine-1-carboxamide], the Ki in experiment [1] is greater than 1000 nM; in experiment [2] it was 10.4 nM; in experiment [3], 96 nM; in experiment [4], 2 nM.

On to `Cc1cc(-c2c(-c3cccc(C#N)c3)nn3ccc(NC(=O)N[C@H]4CCNC4)nc23)cc(Cl)n1` [Example 31.1, 1-[3-(2-Chloro-6-methyl-4-pyridyl)-2-(3-cyanophenyl)pyrazolo[1,5-a]pyrimidin-5-yl]-3-[(3S)-pyrrolidin-3-yl]urea trifluoroacetate], for which the Ki in experiment [1] is greater than 1000 nM; in experiment [2], 10.8 nM; in experiment [3] it was 200 nM; in experiment [4], 15 nM.

Consider `Cc1cc(-c2c(-c3cccc(C#N)c3)nn3ccc(NC(=O)NCCN)nc23)cc(Cl)n1` [Example 31.2, 1-(2-Aminoethyl)-3-[3-(2-chloro-6-methyl-4-pyridyl)-2-(3-cyanophenyl)pyrazolo[1,5-a]pyrimidin-5-yl]urea trifluoroacetate], for which the Ki was greater than 1000 nM in experiment [1], 4.6 nM in experiment [2], 238 nM in experiment [3] and 6 nM in experiment [4].

For the compound `Cc1cc(-c2c(-c3cccc(C#N)c3)nn3ccc(NC(=O)N[C@@H]4CCNC4)nc23)cc(Cl)n1` [Example 31.3, 1-[3-(2-Chloro-6-methyl-4-pyridyl)-2-(3-cyanophenyl)pyrazolo[1,5-a]pyrimidin-5-yl]-3-[(3R)-pyrrolidin-3-yl]urea trifluoroacetate], the Ki in experiment [1] was greater than 1000 nM; in experiment [2] it was 4.6 nM; in experiment [3], 151 nM; in experiment [4], 5 nM.

For `Cc1cc(-c2c(-c3cccc(C#N)c3)nn3ccc(NC(=O)NCC(C)(C)N)nc23)cc(Cl)n1` [Example 31.4, 1-(2-Amino-2-methyl-propyl)-3-[3-(2-chloro-6-methyl-4-pyridyl)-2-(3-cyanophenyl)pyrazolo[1,5-a]pyrimidin-5-yl]urea trifluoroacetate], the Ki in experiment [1] was greater than 1000 nM; in experiment [2], 9.8 nM; in experiment [3], 112 nM; in experiment [4], 13 nM.

As for `Cc1cc(-c2c(-c3cccc(C#N)c3)nn3ccc(N/C(N)=N\C#N)nc23)cc(Cl)n1` [Example 32, 1-[3-(2-Chloro-6-methyl-4-pyridyl)-2-(3-cyanophenyl)pyrazolo[1,5-a]pyrimidin-5-yl]-2-cyano-guanidine], the inhibition constant Ki in experiment [1] is greater than 1000 nM; in experiment [2], 17.4 nM; in experiment [3], 800 nM; in experiment [4] it was 53 nM.

Take `CCn1nccc1-c1c(-c2cccc(C#N)c2)nn2ccc(NCC(C)(C)O)nc12` [Example 33, 3-[3-(2-Ethylpyrazol-3-yl)-5-[(2-hydroxy-2-methyl-propyl)amino]pyrazolo[1,5-a]pyrimidin-2-yl]benzonitrile]: the Ki is greater than 1000 nM in experiment [1], 13.1 nM in experiment [2], 118 nM in experiment [3] and 28 nM in experiment [4].

Regarding `CCn1nccc1-c1c(-c2cccc(C#N)c2)nn2ccc(N3CCN(C)C(CO)C3)nc12` (stereo not drawn) [Example 33.1], the Ki in experiment [1] is greater than 1000 nM; in experiment [2], 14.9 nM; in experiment [3] it was 184 nM; in experiment [4] it was 62 nM.

Take `CCn1nccc1-c1c(-c2cccc(C#N)c2)nn2ccc(N3CC4CCC(C3)O4)nc12` [Example 33.2]: the Ki in experiment [1] was greater than 1000 nM; in experiment [2] it was 15.2 nM; in experiment [3], 126 nM; in experiment [4], 159 nM.

For `CCn1nccc1-c1c(-c2cccc(C#N)c2)nn2ccc(N3CC4CCC(C3)N4C)nc12` [Example 33.3], the Ki in experiment [1] was greater than 1000 nM; in experiment [2], 28.6 nM; in experiment [3], 67 nM; in experiment [4], 710 nM.

Source of the values: US20230203041A1, “ANTAGONISTS OF THE ADENOSINE A2A RECEPTOR” (AdoRx Therapeutics Limited, priority 2020, published 2023).
